Measured values from US20160137639A1, “TRIAZOLE-ISOXAZOLE COMPOUND AND MEDICAL USE THEREOF” (JAPAN TOBACCO INC., priority 2012, published 2016).
Like-named read-outs stand apart in the source and are kept apart here.

Columns and labels:
human RORγ = molecular target: T1, human RORγ (Homo sapiens, UniProt P51449); experiment: Luciferase reporter gene assay of inhibitory effect against RORγ transcriptional activity (GAL4-hRORγ plasmid in CHO cells); type: cell-based
T1 construct: human, NM_005060.3 and from Ser253 to Lys518; expressed in transfected cells; host or cells: CHO cells (transient co-transfection with pG5-Luc reporter)
T1 sequence (P51449 253-518): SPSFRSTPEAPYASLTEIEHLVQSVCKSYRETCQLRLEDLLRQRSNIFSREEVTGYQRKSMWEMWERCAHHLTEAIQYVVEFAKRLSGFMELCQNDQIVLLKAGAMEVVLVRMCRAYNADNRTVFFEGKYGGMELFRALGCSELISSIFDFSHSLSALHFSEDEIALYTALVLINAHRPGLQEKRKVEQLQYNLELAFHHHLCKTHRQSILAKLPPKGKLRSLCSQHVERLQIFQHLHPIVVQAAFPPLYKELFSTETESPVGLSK
Method: (§1) In vitro assay of inhibitory effect against RORγ transcriptional activity
(§2) Inhibitory effect of test article on transcriptional activity of RORγ was measured by means of the following luciferase reporter gene assay.
(§3) A cDNA encoding human and mouse RORγ ligand binding domain (LBD) were obtained based on the reported sequences (Genebank accession number and sequence: human, NM_005060.3 and from Ser253 to Lys518; mouse, NM_011281.2 and from Ile251 to Lys516).
(§4) The cDNA of human RORγ or mouse RORγ was inserted into pFA-CMV vector (Strategene), which expresses GAL4-DNA binding domain fusion protein.
(§5) The resulting plasmids are hereinafter referred to as GAL4-hRORγ plasmid and GAL4-mRORγ plasmid, respectively.
(§6) Human or mouse GAL4-RORγ plasmid was transiently co-transfected into Chinese hamster ovary cells (CHO cells) with […] plasmid, a reporter plasmid expressing firefly luciferase depending on GAL4.
(§7) TransIT CHO transfection reagent (Mirus) was used to co-transfect human or mouse GAL4-RORγ plasmid into CHO cells with pG5-Luc plasmid.
(§8) One day before the assay, CHO cells were suspended in HAM F-12 Nutrient medium containing 10 v/v % fetal bovine serum and seeded at 6×10^6 cells per 175 cm^2 cell culture flask.
(§9) Fifty four micro litters of Transit-CHO reagent was added into a 15 ml tube containing 1.16 ml of HAM F-12 Nutrient medium without fetal bovine serum and incubated at room temperature for 10 min.
A total 36 uL plasmid solution containing the GAL4-hRORγ plasmid (400 ng), pG5-Luc plasmid (9000 ng) and pcDNA3 plasmid (8600 ng) were added into the tube and mixed gently.
(§10) The mixture was incubated at room temperature for 10 min.
(§11) Nine micro litters of CHO Mojo Reagent was then added into each tube and mixed gently. The mixture was incubated at room temperature for 10 min.
(§12) The resultant transfection reagent was applied to the cell culture.
(§13) After incubation at 37° C., 5% CO2 for 4 hr, the transfected CHO cells were harvested by a trypsin treatment.
(§14) The collected cells were resuspended in HAM F-12 Nutrient medium supplemented with 10 v/v % fetal bovine serum and plated into a 384-well-white plate at 8,000 cells/50 uL/well.
(§15) The plate was incubated at room temperature for 1 hour and then further incubated at 37° C., 5% CO2 for 3 hours.
(§16) The test articles were dissolved in dimethylsulfoxide (DMSO) to obtain a concentration of 10 mmol/L. The resulting solution was diluted with the medium just before use and added to the cells in the plate to prepare 8 different concentrations of the test article.
(§17) The final concentration of DMSO was 0.1 v/v % After the addition of the test articles, the cells were incubated at 37° C., 5% CO2 for 2 days.
(§18) RORγ transcriptional activity was detected as the intracellular luciferase activity using SteadyLite HTS Reporter Gene Assay System (Perkin Elmer).
(§19) StedyLite Reagent was diluted five-fold into a solution containing 10 mM Tricine, 0.2% w/v BSA, 0.02% v/v Tween-20 to obtain the luciferase substrate solution.
(§20) After the measurement of the cell viability using Resazurin, the culture media in the 384 well-plate were removed. Then the Luc substrate solution was added into each well.
(§21) After the incubation at room temperature for 10 minutes, luminescence of each well was measured by a microplate reader.
(§22) The luciferase activity derived from the luminescence count in the vehicle-control well treated with 0.1% DMSO alone was defined as 100%, and the luciferase activity in the test article was calculated as a percentage (%-of-control) based on the value of the vehicle-control.
(§23) EC50 value of test article was calculated by curve fitting with GraphPad Prism.
(§24) The luminescence counts at the concentration of the test article where the cytotoxicity was observed were excluded from the data analysis.

mouse RORγ = molecular target: T2, mouse RORγ (Mus musculus, UniProt P51450); experiment: Luciferase reporter gene assay of inhibitory effect against RORγ transcriptional activity (GAL4-mRORγ plasmid in CHO cells); type: cell-based
T2 construct: mouse, NM_011281.2 and from Ile251 to Lys516; expressed in transfected cells; host or cells: CHO cells (transient co-transfection with pG5-Luc reporter)
T2 sequence (P51450 251-516): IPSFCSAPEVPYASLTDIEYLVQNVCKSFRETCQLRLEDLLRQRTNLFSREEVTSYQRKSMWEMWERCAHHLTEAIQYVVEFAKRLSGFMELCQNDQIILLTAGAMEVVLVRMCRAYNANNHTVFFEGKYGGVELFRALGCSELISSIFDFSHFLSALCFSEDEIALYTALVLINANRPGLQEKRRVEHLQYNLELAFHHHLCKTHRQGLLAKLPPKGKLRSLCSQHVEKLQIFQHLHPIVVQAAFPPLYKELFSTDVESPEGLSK
Method: as §1, §2, §3, §4, §5, §6, §7, §8, §9, §10, §11, §12, §13, §14, §15, §16, §17, §18, §19, §20, §21, §22, §23, §24

Structure (SMILES)	EC50 (human RORγ; read-out: LUC EC50 hRORg) [µM]	EC50 (mouse RORγ; read-out: LUC EC50 mRORg) [µM]	EC50 (human RORγ; read-out: LUC EC50 (μM) hRORg) [µM]	EC50 (mouse RORγ; read-out: LUC EC50 (μM) mRORg) [µM]
Cc1ccc(NC(=O)C[C@H](CC(C)(C)O)c2nnc([C@H]3C[C@@H](CC(C)C)C3)n2C2CC2)c(C)c1 [Example F-599]	< 3	< 3		
Cc1ccc(C(F)(F)F)cc1NC(=O)CCc1nnc(CCC(C)C)n1C1CC1 [Example F-151]			> 3	> 3
Cc1ccc(NC(=O)C[C@H](CCC(=O)O)c2noc(-c3cc(C(F)(F)C4CCCC4)on3)c2C2CC2)c(Cl)c1 [Example E-39]			< 3	< 3
CC(=O)N1C[C@H](C(=O)Nc2ccc(C)cc2C)[C@@H](c2nnc(CCC(C)C)n2C2CC2)C1 (racemic) [Example F-162]			> 3	< 3
Cc1c(Cl)cccc1NC(=O)CCc1nnc(C2CN(C(=O)OC(C)(C)C)C2)n1C1CC1 [Example F-234]			> 3	< 3
Cc1ccc(NC(=O)C[C@H](CCC(=O)O)c2noc(-c3cc(CC(C)C)on3)c2C(F)(F)F)c(F)c1 [Example E-12]			> 3	< 3
CC(=O)N[C@@H](CC(=O)Nc1ccc(C)cc1C)c1nnc(CCCC(C)(C)C)n1C1CC1 [Example F-344]			< 3	< 3
Cc1ccc(NC(=O)[C@H]2CC(F)(F)C[C@@H]2c2nnc([C@H]3C[C@@H](CC(C)C)C3)n2C2CC2)c(C)c1 [Example F-571]	< 3	< 3		
Cc1ccc(NC(=O)C[C@H](CCO)c2nnc([C@H]3C[C@@H](CC(C)C)C3)n2C2CC2)c(C)c1 [Example F-361]			< 3	< 3
CC(=O)N1C[C@H](C(=O)Nc2ccc(F)cc2C)[C@@H](c2nnc([C@H]3C[C@@H](CC(C)C)C3)n2C2CC2)C1 [Example F-600]	< 3	< 3		
Cc1ccc(NC(=O)C[C@H](CCc2noc(=O)[nH]2)c2noc([C@H]3C[C@@H](CC(C)C)C3)c2C2CC2)c(C)c1 [Example F-643]	< 3	< 3		
CC(=O)N1C[C@H](C(=O)Nc2ccc(C)cc2C)[C@@H](c2nnc([C@H]3C[C@@H](c4ccccc4)C3)n2C2CC2)C1 (racemic) [Example F-346]			< 3	< 3
Cc1ccc(NC(=O)[C@H]2CC(N(C)C)C[C@@H]2c2nnc([C@H]3C[C@@H](CC(C)C)C3)n2C2CC2)c(C)c1 (single isomer, unassigned) [Example F-534]	< 3	< 3		
Cc1ccc(NC(=O)C(C)C(CCO)c2nnc([C@H]3C[C@@H](CC(C)C)C3)n2C2CC2)c(C)c1 (single isomer, unassigned) [Example F-492]			> 3	> 3
Cc1ccc(NC(=O)C[C@H](CCC(=O)O)c2noc(-c3nc(C)c(CC(C)C)s3)c2C2CC2)c(Cl)c1 [Example E-27]			< 3	< 3
Cc1ccc(NC(=O)CCc2noc(C3(CO)CC(CC(C)(C)C)C3)c2C2CC2)c(Cl)c1 (mixture of isomers) [Example F-730]	< 3	< 3		
Cc1c(O)cccc1CNC(=O)CCc1nnc(CCC(C)C)n1C1CC1 [Example F-133]			> 3	> 3
Cc1ccc(NC(=O)CC(Cc2cccc(=O)[nH]2)c2nnc([C@H]3C[C@@H](CC(C)C)C3)n2C2CC2)c(C)c1 (mixture of isomers) [Example F-505]	< 3	> 3		
Cc1ccc(NC(=O)C[C@H](CC(C)C)c2nnc(-c3cc(CC(C)(C)C)on3)n2C2CC2)c(C)c1 [Example F-625]	< 3	< 3		
